In US20090202698A1, “OLIGOPEPTIDES FOR USE AS TASTE MODULATORS” (Nutrinova Nutrition Specialties & Food Ingredients GmbH, priority 2008, published 2009):

Molecular target: T1, human T1R2/T1R3 taste receptor (Homo sapiens, UniProt Q7RTX0+Q8TE23)
T1 construct: the cDNA for the receptors ht1R2 and ht1R3 and the cDNA for the blasticidin S deaminase gene have been cloned; expressed in transfected cells; host or cells: HEK293 stably expressing mouse G-alpha-15, stably transfected with the tricistronic vector pTrix-Eb-R2R3 (blasticidin selection)
T1 sequence (Q8TE23 20-839): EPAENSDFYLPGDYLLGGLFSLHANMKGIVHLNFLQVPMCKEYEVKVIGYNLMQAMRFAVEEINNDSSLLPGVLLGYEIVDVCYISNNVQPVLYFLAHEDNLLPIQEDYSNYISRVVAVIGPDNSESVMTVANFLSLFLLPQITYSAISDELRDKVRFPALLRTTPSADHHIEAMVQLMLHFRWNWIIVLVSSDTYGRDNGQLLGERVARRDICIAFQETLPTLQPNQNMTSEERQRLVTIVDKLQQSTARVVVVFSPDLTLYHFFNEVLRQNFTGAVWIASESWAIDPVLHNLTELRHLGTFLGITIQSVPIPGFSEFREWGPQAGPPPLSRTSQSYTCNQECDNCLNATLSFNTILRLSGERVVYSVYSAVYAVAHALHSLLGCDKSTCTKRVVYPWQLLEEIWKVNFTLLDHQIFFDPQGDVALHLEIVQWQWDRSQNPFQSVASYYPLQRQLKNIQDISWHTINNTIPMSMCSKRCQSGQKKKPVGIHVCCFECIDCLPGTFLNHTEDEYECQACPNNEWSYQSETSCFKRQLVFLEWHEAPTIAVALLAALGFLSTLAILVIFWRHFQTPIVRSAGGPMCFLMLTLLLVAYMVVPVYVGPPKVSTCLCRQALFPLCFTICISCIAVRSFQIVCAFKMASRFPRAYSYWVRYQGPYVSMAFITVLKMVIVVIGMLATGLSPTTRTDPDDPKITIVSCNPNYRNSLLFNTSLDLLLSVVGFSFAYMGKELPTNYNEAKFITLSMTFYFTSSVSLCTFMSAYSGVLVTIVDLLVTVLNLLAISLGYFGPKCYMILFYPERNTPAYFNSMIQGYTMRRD
T1 sequence (Q7RTX0 21-852): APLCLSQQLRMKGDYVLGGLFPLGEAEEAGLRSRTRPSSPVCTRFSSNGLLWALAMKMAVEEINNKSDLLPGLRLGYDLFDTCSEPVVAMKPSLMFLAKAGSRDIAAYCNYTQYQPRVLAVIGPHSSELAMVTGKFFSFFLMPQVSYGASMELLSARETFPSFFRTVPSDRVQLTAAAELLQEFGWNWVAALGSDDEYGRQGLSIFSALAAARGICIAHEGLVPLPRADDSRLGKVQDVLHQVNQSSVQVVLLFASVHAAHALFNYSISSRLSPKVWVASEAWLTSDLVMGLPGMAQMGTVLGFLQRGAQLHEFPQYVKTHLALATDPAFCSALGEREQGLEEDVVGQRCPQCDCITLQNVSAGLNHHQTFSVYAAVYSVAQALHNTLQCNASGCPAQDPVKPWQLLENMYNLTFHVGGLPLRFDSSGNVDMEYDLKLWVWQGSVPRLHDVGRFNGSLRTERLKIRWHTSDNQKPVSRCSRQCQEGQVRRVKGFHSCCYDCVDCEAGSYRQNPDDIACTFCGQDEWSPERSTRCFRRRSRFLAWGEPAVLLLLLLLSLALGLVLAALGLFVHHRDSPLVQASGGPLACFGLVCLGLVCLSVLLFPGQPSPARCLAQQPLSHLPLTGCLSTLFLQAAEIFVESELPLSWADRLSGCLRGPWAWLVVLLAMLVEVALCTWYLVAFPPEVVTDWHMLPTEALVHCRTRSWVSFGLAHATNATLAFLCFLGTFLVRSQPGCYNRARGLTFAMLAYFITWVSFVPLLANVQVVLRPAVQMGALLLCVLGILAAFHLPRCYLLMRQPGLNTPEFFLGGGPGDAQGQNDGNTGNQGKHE
Assay: Recombinant human T1R2/T1R3 taste receptor dependent calcium (Fluo-4 AM) cell based assay in stable HEK293 cells
Experimental: Fluo-4 AM assay with stable HEK293 cells—Stable cells are maintained in DMEM high-glucose medium (Invitrogen) supplemented with 10% fetal bovine serum (Biochrom) and 4 mM L-glutamine (Invitrogen). Cells for calcium imaging are maintained in DMEM low-glucose medium supplemented with 10% FBS and 1× Glutamax-1 (Invitrogen) for 48 hours before seeding. These stable cells are trypsinized after 48 hours (either with Trypsin-EDTA, Accutase or TrypLE) and seeded onto poly-D-lysine coated 96-well assay plates (Corning) at a density of 45,000 cells/well in DMEM low-glucose medium supplemented with 10% FBS and 1× Glutamax-1.
After 24 hours, the cells were loaded in 100 μl medium with additional 100 μl of 4 μM Fluo-4 (calcium sensing dye, 2 μM end concentration; Molecular Probes) in Krebs-HEPES (KH)-buffer for 1 hour. The loading reagent is then replaced by 80 μl KH-buffer per well. The Krebs-HEPES-buffer (KH-buffer) is a physiological saline solution including 1.2 mM CaCl2, 4.2 mM NaHCO3 and 10 mM HEPES.
The dye-loaded stable cells in plates were placed into a fluorescence microtiter plate reader to monitor fluorescence (excitation 488 nm, emission 520 nm) change after the addition of 20 μl KH-buffer supplemented with 5x tastants. For each trace, tastant was added 11.5 seconds after the start of the scan and mixed two times with the buffer, scanning continued for an additional 32 seconds, and data were collected every second.
Data analysis/Data recording—Calcium mobilization was quantified as the change of peak fluorescence OF) over the baseline level (F). Data were expressed as the mean S.E. of the )F/F value of replicated independent samples. The analysis was done with the software of the microtiter plate reader.
To analyze the function and activity of aladapcin the heterodimeric T1R2/T1R3 sweet taste receptor has been utilized in a calcium dependent cell based assay. T1R type taste receptors have been transfected with the multicistronic plasmid vector pTrix-Eb-R2R3 in a HEK293 cell line stably expressing the promiscuous mouse G-alpha-15 G-protein. […]

Row | SMILES | activation of the sweet taste receptors by the sweetener alone (25 mM fructose (4.5 g/l), preexaminations) | aladapcin activity on sweet taste receptors (activity as sweet enhancer): amplification of fructose (in the presence of 25 mM fructose, Fluo4-AM fluorescence increase, HEK293 cells expressing G-alpha-15, human T1R2 and T1R3, FIG. 2) | sweetener potential (receptor activation by the compound alone) (without the presence of fructose (control measurement), range 0.1-25 μm, FIG. 3)
1 | O=C(CO)[C@@H](O)[C@H](O)[C@H](O)CO [fructose, reference compound] | barely activating |  | 
2 | CC(NC(=O)C(C)NC(=O)C(N)CCCC(N)C(N)=O)C(=O)O (stereo not drawn) [Aladapcin, 2-[2-[(2,6-diamino-6-carbamoyl-hexanoyl)-amino]propanoylamino]propanoic acid] |  | dose dependent | no sweetener potential
